# Active and inactive are the calls of the source. The calls are words filed in the database; no cut-off is given here.
# Columns and labels:
# Streptococcus pneumoniae [1] = assay: Antibacterial activity against low dose 5 x 10^6 CFU Streptococcus pneumoniae serotype 19 infected in semitherapeutic C57BL/6 mouse model assessed as bacterial count in lung at 6 mg/kg, ip measured after 1 day post infection; type: functional; details: route intraperitoneal
# Streptococcus pneumoniae [2] = assay: Antibacterial activity against high dose 1.5 x 10^7 CFU Streptococcus pneumoniae serotype 19 infected in semitherapeutic C57BL/6 mouse model assessed as reduction of bacteremia at 6 mg/kg, ip measured after 2 days post infection; type: functional, organism-based; set-up: dose 6 mg/kg
smiles,measurement,setting,value
CCCCCCCCCC(=O)N[C@@H](Cc1c[nH]c2ccccc12)C(=O)N[C@H](CC(N)=O)C(=O)N[C@@H](CC(=O)O)C(=O)N[C@@H]1C(=O)NCC(=O)N[C@@H](CCCN)C(=O)N[C@@H](CC(=O)O)C(=O)N[C@H](C)C(=O)N[C@@H](CC(=O)O)C(=O)NCC(=O)N[C@H](CO)C(=O)N[C@@H]([C@H](C)CC(=O)O)C(=O)N[C@@H](CC(=O)c2ccccc2N)C(=O)O[C@@H]1C,log10cfu,Streptococcus pneumoniae [1],6.3
same,Activity,Streptococcus pneumoniae [2],Active

# From ChEMBL document CHEMBL1240356, “Efficacy profiles of daptomycin for treatment of invasive and noninvasive pulmonary infections with Streptococcus pneumoniae” (2010)
